Source: patent US8314085B2, “Agent for overcoming resistance to anti-cancer agent” (Nippon Chemiphar Co., Ltd., priority 2006, dated 2012)
Counter-ions that a name gives are not always drawn. Like-named read-outs stand apart in the source and are kept apart here.

Experiments:
[1] = molecular target: T1, BCRP (Homo sapiens, UniProt Q9UNQ0); assay: BCRP-mediated methotrexate transport in membrane vesicles of BCRP-expressing Sf9 cells; details: for inhibitory action on BCRP-mediated methotrexate transport: at concentration of 100 μmol/L
T1 sequence (Q9UNQ0 1-655): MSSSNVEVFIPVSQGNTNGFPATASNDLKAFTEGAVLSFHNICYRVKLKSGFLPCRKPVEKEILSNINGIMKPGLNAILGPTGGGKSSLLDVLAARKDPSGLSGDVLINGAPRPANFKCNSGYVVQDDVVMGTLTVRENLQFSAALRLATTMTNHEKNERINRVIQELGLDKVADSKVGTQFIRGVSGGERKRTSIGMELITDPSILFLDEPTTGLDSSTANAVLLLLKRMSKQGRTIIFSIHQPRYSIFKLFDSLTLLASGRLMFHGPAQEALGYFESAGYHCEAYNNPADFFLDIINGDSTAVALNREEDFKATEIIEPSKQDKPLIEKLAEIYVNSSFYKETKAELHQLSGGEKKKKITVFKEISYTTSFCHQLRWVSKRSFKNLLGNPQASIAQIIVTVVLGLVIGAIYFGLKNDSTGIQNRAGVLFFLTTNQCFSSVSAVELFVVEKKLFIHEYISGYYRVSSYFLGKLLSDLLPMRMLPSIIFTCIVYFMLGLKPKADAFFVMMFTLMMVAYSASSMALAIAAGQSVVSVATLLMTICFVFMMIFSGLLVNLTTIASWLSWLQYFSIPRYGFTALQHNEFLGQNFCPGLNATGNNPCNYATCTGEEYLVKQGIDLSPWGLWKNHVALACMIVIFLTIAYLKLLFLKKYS
Method: (§1) In the experiment, plasma membrane was prepared from BCRP-expressing Sf9 cells.
(§2) The activity of methotrexate transport was measured using 96 wells-plate according to the following method.
(§3) Preparation and Composition of Reaction Solution
(§4) 50 μL of solution containing sucrose (250 mmol/L) and Tris/Hepes (10 mmol/L, pH: 7.4)
(§5) 30 μL of solution containing ATP (3.33 mmol/L), creatine phosphate (33.3 mmol/L), and MgCl2 (33.3 mmol/L)
(§6) (or solution containing creatine phosphate (33.3 mmol/L) and MgCl2 (33.3 mmol/L))
5 μL of creatine kinase (2 mg/mL)
(§7) 2 μL of [^3H]methotrexate (10 mmol/L, final concentration: 200 μmol/L)
(§8) 10 μL of membrane sample of BCRP-expressing Sf9 cells (total protein: 50 μg)
(§9) The reaction solution was incubated at 37° C. for 20 minutes. 1 mL of ice-cooled solution containing sucrose (250 mmol/L), EDTA (2 mmol/L), and Tris/Hepes (10 mmol/L, pH: 7.4) was quickly added to the reaction solution to stop the reaction. Each 270 μL of the mixed solution was poured into each well of MultiScreen™ (Millipore), and sucked. The wells were washed four times with 200 μL of ice-cooled solution containing sucrose (250 mmol/L) and Tris/Hepes (10 mmol/L, pH: 7.4). The radioactivity trapped on a filter of each well was measured. The amount of methotrexate transported into the membrane vesicle was calculated from the radioactivity.

[2] = tested on: BCRP-overexpressing cells (Flp-In-293/BCRP); assay: Influence on anti-cancer agent (SN-38) resistance in BCRP-overexpressing cells, MTT assay; type: cell-based; details: Flp-In-293/ABCG2 cells; for degree of reversing resistance to SN-38: at the concentration of 5 μmol/L, 72 hours
Method: (§10) The cells were cultured under the atmosphere of 5% CO2 using DMEM containing FCS (10%), penicillin (100 U/mL), streptomycin (100 μg/mL), amphotericin B (250 ng/mL), hygromycin B (100 μg/mL), and L-glutamine (2 mmol/L).
(§11) The resistance of Flp-In-293 cells to an agent was profiled by counting living cells using MTT assay. In more detail, the cells were seeded in 96-wells plate at the concentration of 2×10^3 cells/well, and cultured for 24 hours.

[3] = tested on: Flp-In-293/ABCG2 cells; assay: Toxicity to the cells (viability, MTT assay); details: at or up to the concentration of 10 μmol/L
Method: as §10, §11

[4] = molecular target: T1, BCRP
Method: as §1, §2, §3, §4, §5, §6
5 μL of creatine kinase (2 mg/mL)
as §7, §8, §9

Row | SMILES | IC50 [1] [nM] | effect of overcoming resistance to SN-38 (in words) [2] | toxicity to the cells / effect on viability [3] | degree of reversing resistance to SN-38 [2] | further results
1 | N#Cc1cc(-c2nc3cncnc3s2)ccc1Oc1ccccc1 [Compound 4, 2-(3-cyano-4-phenoxyphenyl)thiazolo[5,4-d]pyrimidine] | 660 | – | – | – | –
2 | Oc1ncnc2[nH]ncc12 [allopurinol] | – | did not exhibit an effect of overcoming resistance to SN-38 | did not exhibit toxicity to the cells | – | inhibitory action on BCRP-mediated methotrexate transport [1]: did not exhibit an inhibitory action
3 | N#Cc1cc(-c2nc3c(O)ncnc3s2)ccc1Oc1ccccc1 [Compound 5, 2-(3-cyano-4-phenoxyphenyl)-4-hydroxythiazolo[5,4-d]pyrimidine] | – | – | did not exhibit toxicity to the cells | about 96% | –
4 | N#Cc1cc(-c2nc3c(O)ncnc3s2)ccc1Oc1ccccc1 [Compound 3, potassium salt of 2-(3-cyano-4-phenoxyphenyl)-4-hydroxythiazolo[5,4-d]pyrimidine] | – | – | – | – | IC50 [4]: 230 nM
5 | O=c1[nH]c(=O)c2c[nH]nc2[nH]1 [oxypurinol] | – | did not exhibit an effect of overcoming resistance to SN-38 | – | – | inhibitory action on BCRP-mediated methotrexate transport [1]: did not exhibit an inhibitory action
6 | N#Cc1cc(-c2n[nH]c(-c3ccncc3)n2)ccn1 [FYX-051, 4-[5-pyridin-4-yl-1H-[1,2,4]triazol-3-yl]pyridine-2-carbonitrile] | 770 | – | – | about 39% | –
7 | CC(C)(C)COc1ccc(-n2cc(C(=O)O)cn2)cc1C#N [Compound Y-700, 1-[3-cyano-4-(2,2-dimethylpropoxy)phenyl]-1H-pyrazole-4-carboxylic acid] | – | did not exhibit an effect of overcoming the resistance in the concentration not exhibiting toxicity to the cells | – | – | –
8 | N#Cc1cc(-c2nc3cncnc3s2)ccc1Oc1ccc(F)cc1 [Compound 2, 2-[3-cyano-4-(4-fluorophenoxy)phenyl]thiazolo[5,4-d]pyrimidine] | 1100 | reversed the resistance of Flp-In-293/ABCG2 cells to SN-38 in a concentration-dependent manner | – | about 90% | –
9 | Cc1nc(-c2ccc(OCC(C)C)c(C#N)c2)sc1C(=O)O [TMX-67, Febuxostat] | 250 | – | did not exhibit toxicity to the cells | about 82% | –
10 | N#Cc1cc(-c2nc3c([O-])ncnc3s2)ccc1Oc1ccc(F)cc1.[K+] [Compound 1, potassium salt of 2-[3-cyano-4-(4-fluorophenoxy)phenyl]-4-hydroxythiazolo[5,4-d]pyrimidine] | – | reversed the resistance of Flp-In-293/ABCG2 cells to SN-38 in a concentration-dependent manner | did not affect viability | about 96% | IC50 ([1]; read-out: IC50 (concentration inhibiting methotrexate transport by 50%), [3H]methotrexate 200 μmol/L, 37° C., 20 minutes): 460 nM
